Results as given in patent US20210380606A1, “5-AZAINDAZOLE DERIVATIVES AS ADENOSINE RECEPTOR ANTAGONISTS” (Merck Patent GmbH, priority 2018, published 2021).

Tests used:
[1] = target: T1, human A2A receptors (Homo sapiens, UniProt P29274); experiment: Functional human A2A receptor activity, recombinant HEK293 cells, cAMP (HTRF); format: cell-based; conditions: read-out: A2A (Category)
T1 construct: expressed in transfected cells; host or cells: HEK293
Summary of the method: (§1)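 Receptor function was assessed by measuring cAMP, the second messenger for adenosine receptors. Cells were incubated for 15 min, after which HTRF reagents were added and cellular cAMP levels were read.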

[2] = target: T2, human A2B receptors (Homo sapiens, UniProt P29275); experiment: Functional human A2B receptor activity, recombinant HEK293 cells, cAMP (HTRF); format: cell-based; conditions: read-out: A2B (Category)
T2 construct: expressed in transfected cells; host or cells: HEK293
T2 sequence (P29275 1-332): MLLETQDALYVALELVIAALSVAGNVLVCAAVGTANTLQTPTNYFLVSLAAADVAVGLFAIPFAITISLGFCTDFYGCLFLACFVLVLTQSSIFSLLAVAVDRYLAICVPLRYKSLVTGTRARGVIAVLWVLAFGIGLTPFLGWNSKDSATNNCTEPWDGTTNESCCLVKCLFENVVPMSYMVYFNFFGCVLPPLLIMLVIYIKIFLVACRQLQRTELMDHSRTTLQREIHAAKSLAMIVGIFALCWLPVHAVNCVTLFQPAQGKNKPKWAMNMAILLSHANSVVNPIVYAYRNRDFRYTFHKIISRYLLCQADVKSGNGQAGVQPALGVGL
Summary of the method: as §1

T1 sequence (P29274 whole entry): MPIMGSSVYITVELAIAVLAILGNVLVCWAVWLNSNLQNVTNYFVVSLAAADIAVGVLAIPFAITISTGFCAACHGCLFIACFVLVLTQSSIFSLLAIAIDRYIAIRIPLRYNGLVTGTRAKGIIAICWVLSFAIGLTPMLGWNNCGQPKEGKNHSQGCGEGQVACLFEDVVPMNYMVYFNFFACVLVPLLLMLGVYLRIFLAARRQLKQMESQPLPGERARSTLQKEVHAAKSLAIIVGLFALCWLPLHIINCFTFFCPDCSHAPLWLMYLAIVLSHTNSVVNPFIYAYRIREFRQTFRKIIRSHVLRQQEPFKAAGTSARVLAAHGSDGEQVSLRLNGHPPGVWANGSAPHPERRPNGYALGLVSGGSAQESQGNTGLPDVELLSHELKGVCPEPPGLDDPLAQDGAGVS

Row | Structure (SMILES) | IC50 [1] [nM] | IC50 [2] [nM]
1 | CS(=O)(=O)Cn1nc(-c2cnn3ccccc23)c2cnc(C(=O)N3CC4CCC(C3)O4)cc21 [Compound 108, (1-Methanesulfonylmethyl-3-pyrazolo[1,5-a]pyridine-3-yl-1H-pyrazolo[4,3-c]pyridine-6-yl)-(8-oxa-3-aza-bicyclo[3.2.1]oct-3-yl)-methanone] | < 100 | < 1000
2 | CC(C)C1CC(O)CCN1C(=O)c1cc2c(cn1)c(-c1cnc3c(F)cc(F)cn13)nn2CC(F)(F)F (stereo not shown) [Compound 141, [3-(6,8-Difluoro-imidazo[1,2-a]pyridin-3-yl)-1-(2,2,2-trifluoro-ethyl)-1H-pyrazolo[4,3-c]pyridin-6-yl]-(4-hydroxy-2-isopropyl-piperidin-1-yl)-methanone] | < 100 | < 1000
3 | O=C(c1cc2c(cn1)c(-c1cnc3ccc(F)cn13)nn2CC(F)(F)F)N1CCC(O)CC1 [Compound 131, [3-(6-Fluoro-imidazo[1,2-a]pyridin-3-yl)-1-(2,2,2-trifluoro-ethyl)-1H-pyrazolo[4,3-c]pyridin-6-yl]-(4-hydroxy-piperidin-1-yl)-methanone] | < 100 | < 1000
4 | CS(=O)(=O)n1nc(-c2cnc3c(F)cc(F)cn23)c2cnc(C(=O)N3CCCOCC3)cc21 [Compound 10, [3-(6,8-Difluoro-imidazo[1,2-a]pyridin-3-yl)-1-methanesulfonyl-1H-pyrazolo[4,3-c]pyridin-6-yl]-1,4-oxazepan-4-yl-methanone] | < 100 | < 1000
5 | CS(=O)(=O)Cn1nc(-c2cnc3c(F)cc(F)cn23)c2cnc(C(=O)N3CCCOCC3)cc21 [Compound 15, [3-(6,8-Difluoro-imidazo[1,2-a]pyridin-3-yl)-1-methanesulfonylmethyl-1H-pyrazolo[4,3-c]pyridin-6-yl]-1,4-oxazepan-4-yl-methanone] | < 100 | < 100
6 | O=C(c1cc2c(cn1)c(-c1cnc3ncc(F)cn13)nn2CC(F)(F)F)N1CCCCCC1 [Compound 50, Azepan-1-yl-[3-(6-fluoro-imidazo[1,2-a]pyrimidin-3-yl)-1-(2,2,2-trifluoro-ethyl)-1H-pyrazolo[4,3-c]pyridin-6-yl]-methanone] | < 100 | < 1000

The remaining lines, values ahead:

Row | IC50 [1] [nM] | IC50 [2] [nM] | Structure (SMILES)
7 | < 100 | < 1000 | CCCn1nc(-c2coc3ccccc23)c2cnc(C(=O)N3CCCOCC3)cc21 [Compound 106, (3-Benzofuran-3-yl-1-propyl-1H-pyrazolo[4,3-c]pyridin-6-yl)-1,4-oxazepan-4-yl-methanone]
8 | < 100 | < 100 | CS(=O)(=O)Cn1nc(-c2coc3ccccc23)c2cnc(C(=O)N3CC4CCC(C3)C4O)cc21 (stereo not drawn) [Compound 30, (3-Benzofuran-3-yl-1-methanesulfonylmethyl-1H-pyrazolo[4,3-c]pyridin-6-yl)-(8-endo-hydroxy-3-aza-bicyclo[3.2.1]oct-3-yl)-methanone]
9 | < 100 | < 100 | CS(=O)(=O)Cn1nc(-c2coc3ccccc23)c2cnc(C(=O)N3CC4CCC(C4)C3)cc21 [Compound 19, (3-Aza-bicyclo[3.2.1]oct-3-yl)-(3-benzofuran-3-yl-1-methanesulfonylmethyl-1H-pyrazolo[4,3-c]pyridin-6-yl)-methanone]
10 | < 100 | < 1000 | CC1(C)CC(O)CCN1C(=O)c1cc2c(cn1)c(-c1coc3ccccc13)nn2CS(C)(=O)=O (stereo not shown) [Compound 35, (3-Benzofuran-3-yl-1-methanesulfonylmethyl-1H-pyrazolo[4,3-c]pyridin-6-yl)-(4-hydroxy-2,2 dimethyl-piperidin-1-yl)-methanone]
11 | < 100 | < 100 | O=C(c1cc2c(cn1)c(-c1coc3ccccc13)nn2CC(F)(F)F)N1CC2CCC(C2)C1 [Compound 101, (3-Aza-bicyclo[3.2.1]oct-3-yl)-[3-benzofuran-3-yl-1-(2,2,2-trifluoro-ethyl)-1H-pyrazolo[4,3-c]pyridin-6-yl]-methanone]
